The kinase profiling compilation of Christmann-Franck et al. (2016)

Assays:
Experiment in all cases: radiometric filter-binding kinase assay, Kinase HotSpot
Settings in all cases: compound 0.5 µM; ATP 10 µM
NEK4 (human) = NEK4 (human) (UniProt P51957)
CDK9 CCNK (human) = CDK9 CCNK (human) (UniProt O75909+P50750)
AXL (human) = AXL (human) (UniProt P30530)
CHUK (human) = CHUK (human) (UniProt O15111)
MINK1 (human) = MINK1 (human) (UniProt Q8N4C8)
ERBB4 (human) = ERBB4 (human) (UniProt Q15303)
ULK2 (human) = ULK2 (human) (UniProt Q8IYT8)
MAPK14 (human) = MAPK14 (human) (UniProt Q16539)
DSTYK (human) = DSTYK (human) (UniProt Q6XUX3)
SRPK3 (human) = SRPK3 (human) (UniProt Q9UPE1)
DYRK1A (human) = DYRK1A (human) (UniProt Q13627)
ITK (human) = ITK (human) (UniProt Q08881)
NEK9 (human) = NEK9 (human) (UniProt Q8TD19)
FES (human) = FES (human) (UniProt P07332)
DYRK2 (human) = DYRK2 (human) (UniProt Q92630)
TEK (human) = TEK (human) (UniProt Q02763)
STK4 (human) = STK4 (human) (UniProt Q13043)
DAPK2 (human) = DAPK2 (human) (UniProt Q9UIK4)
RAF1 (human) = RAF1 (human) (UniProt P04049)
CAMK1D (human) = CAMK1D (human) (UniProt Q8IU85)
INSRR (human) = INSRR (human) (UniProt P14616)
PAK7 (human) = PAK7 (human) (UniProt Q9P286)
PIM3 (human) = PIM3 (human) (UniProt Q86V86)
MAPK11 (human) = MAPK11 (human) (UniProt Q15759)
BTK (human) = BTK (human) (UniProt Q06187)
ACVRL1 (human) = ACVRL1 (human) (UniProt P37023)
TAOK3 (human) = TAOK3 (human) (UniProt Q9H2K8)
FGFR4 (human) = FGFR4 (human) (UniProt P22455)
CDK7 CCNH MNAT1 (human) = CDK7 CCNH MNAT1 (human) (UniProt P50613+P51948+P51946)
ADRBK1 (human) = ADRBK1 (human) (UniProt P25098)
LTK (human) = LTK (human) (UniProt P29376)
SYK (human) = SYK (human) (UniProt P43405)
MST4 (human) = MST4 (human) (UniProt Q9P289)
CDK2 CCNE1 (human) = CDK2 CCNE1 (human) (UniProt P24941+P24864)
JAK2 JH1 JH2 (human) = JAK2 JH1 JH2 (human) (UniProt O60674)
CAMK2G (human) = CAMK2G (human) (UniProt Q13555)
STK10 (human) = STK10 (human) (UniProt O94804)
STK3 (human) = STK3 (human) (UniProt Q13188)
MYLK (human) = MYLK (human) (UniProt Q15746)
AKT2 (human) = AKT2 (human) (UniProt P31751)
CSF1R (human) = CSF1R (human) (UniProt P07333)
PTK6 (human) = PTK6 (human) (UniProt Q13882)

Chain of CSF1R (human) (P07333 whole entry, looked up): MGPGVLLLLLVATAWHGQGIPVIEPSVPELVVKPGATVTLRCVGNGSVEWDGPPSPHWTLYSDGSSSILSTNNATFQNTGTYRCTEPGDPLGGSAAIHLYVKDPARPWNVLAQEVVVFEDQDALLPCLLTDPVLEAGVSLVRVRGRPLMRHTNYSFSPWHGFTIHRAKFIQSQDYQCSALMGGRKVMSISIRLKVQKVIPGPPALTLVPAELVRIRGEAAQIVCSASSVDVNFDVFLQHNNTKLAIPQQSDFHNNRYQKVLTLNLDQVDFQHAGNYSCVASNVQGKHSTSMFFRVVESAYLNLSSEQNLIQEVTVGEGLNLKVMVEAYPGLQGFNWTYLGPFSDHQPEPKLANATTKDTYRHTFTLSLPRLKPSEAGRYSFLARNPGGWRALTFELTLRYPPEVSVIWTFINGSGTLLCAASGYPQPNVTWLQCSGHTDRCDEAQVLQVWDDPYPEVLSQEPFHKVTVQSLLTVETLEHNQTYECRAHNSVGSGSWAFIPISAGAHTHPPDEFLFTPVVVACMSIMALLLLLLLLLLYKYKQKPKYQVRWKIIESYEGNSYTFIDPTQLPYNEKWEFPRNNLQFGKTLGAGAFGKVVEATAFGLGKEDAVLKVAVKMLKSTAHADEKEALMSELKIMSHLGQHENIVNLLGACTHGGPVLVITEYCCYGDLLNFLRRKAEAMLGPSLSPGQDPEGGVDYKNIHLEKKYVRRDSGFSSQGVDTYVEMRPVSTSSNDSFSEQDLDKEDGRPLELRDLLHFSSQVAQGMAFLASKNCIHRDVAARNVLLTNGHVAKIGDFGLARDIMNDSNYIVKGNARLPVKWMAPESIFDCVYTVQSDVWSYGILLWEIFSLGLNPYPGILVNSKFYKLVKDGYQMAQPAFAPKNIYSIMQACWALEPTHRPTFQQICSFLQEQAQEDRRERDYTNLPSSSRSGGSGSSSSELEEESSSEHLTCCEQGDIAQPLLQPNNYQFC
Chain of MAPK14 (human) (Q16539 whole entry, looked up): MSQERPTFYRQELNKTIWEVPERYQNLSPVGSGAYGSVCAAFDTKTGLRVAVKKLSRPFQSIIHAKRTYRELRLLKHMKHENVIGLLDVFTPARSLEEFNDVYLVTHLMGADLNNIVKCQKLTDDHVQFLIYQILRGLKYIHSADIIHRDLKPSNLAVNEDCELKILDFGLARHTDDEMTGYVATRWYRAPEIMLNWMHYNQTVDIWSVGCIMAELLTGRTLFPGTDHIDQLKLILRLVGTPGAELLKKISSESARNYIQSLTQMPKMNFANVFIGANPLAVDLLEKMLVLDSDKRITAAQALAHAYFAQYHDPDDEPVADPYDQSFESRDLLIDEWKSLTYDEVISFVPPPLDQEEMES
Chain of INSRR (human) (P14616 whole entry, looked up): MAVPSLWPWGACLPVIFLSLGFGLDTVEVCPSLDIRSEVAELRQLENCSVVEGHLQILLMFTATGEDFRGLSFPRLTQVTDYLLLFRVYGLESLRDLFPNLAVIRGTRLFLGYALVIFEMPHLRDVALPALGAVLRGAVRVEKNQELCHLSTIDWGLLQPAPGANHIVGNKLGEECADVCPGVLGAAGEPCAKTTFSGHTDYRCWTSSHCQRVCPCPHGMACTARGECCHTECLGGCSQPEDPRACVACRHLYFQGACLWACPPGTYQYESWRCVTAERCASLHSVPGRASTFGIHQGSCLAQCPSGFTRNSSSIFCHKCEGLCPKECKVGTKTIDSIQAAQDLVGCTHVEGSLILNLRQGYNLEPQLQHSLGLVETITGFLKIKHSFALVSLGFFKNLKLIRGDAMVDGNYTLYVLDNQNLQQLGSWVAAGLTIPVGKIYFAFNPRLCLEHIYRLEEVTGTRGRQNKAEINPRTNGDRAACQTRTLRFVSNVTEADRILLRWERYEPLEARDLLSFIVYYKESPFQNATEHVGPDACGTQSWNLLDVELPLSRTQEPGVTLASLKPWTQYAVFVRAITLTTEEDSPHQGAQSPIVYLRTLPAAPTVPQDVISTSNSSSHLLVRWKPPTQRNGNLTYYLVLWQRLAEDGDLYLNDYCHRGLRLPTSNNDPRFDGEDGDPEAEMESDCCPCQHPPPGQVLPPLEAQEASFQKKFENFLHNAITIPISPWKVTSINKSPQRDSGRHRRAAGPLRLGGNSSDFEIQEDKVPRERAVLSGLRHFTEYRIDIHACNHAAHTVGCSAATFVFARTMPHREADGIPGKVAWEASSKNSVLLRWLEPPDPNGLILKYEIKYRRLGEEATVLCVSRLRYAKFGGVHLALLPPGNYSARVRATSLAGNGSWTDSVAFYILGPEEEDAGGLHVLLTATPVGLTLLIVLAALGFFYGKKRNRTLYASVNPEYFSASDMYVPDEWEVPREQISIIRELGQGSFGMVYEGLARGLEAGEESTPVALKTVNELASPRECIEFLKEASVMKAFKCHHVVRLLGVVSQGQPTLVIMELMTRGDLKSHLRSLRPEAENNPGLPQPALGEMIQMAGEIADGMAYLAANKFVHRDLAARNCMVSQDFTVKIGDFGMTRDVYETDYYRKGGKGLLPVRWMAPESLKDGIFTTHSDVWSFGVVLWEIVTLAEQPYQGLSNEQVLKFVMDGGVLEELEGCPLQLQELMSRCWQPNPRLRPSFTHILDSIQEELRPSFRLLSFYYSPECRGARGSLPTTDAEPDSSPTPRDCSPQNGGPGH
Chain of FGFR4 (human) (P22455 whole entry, looked up): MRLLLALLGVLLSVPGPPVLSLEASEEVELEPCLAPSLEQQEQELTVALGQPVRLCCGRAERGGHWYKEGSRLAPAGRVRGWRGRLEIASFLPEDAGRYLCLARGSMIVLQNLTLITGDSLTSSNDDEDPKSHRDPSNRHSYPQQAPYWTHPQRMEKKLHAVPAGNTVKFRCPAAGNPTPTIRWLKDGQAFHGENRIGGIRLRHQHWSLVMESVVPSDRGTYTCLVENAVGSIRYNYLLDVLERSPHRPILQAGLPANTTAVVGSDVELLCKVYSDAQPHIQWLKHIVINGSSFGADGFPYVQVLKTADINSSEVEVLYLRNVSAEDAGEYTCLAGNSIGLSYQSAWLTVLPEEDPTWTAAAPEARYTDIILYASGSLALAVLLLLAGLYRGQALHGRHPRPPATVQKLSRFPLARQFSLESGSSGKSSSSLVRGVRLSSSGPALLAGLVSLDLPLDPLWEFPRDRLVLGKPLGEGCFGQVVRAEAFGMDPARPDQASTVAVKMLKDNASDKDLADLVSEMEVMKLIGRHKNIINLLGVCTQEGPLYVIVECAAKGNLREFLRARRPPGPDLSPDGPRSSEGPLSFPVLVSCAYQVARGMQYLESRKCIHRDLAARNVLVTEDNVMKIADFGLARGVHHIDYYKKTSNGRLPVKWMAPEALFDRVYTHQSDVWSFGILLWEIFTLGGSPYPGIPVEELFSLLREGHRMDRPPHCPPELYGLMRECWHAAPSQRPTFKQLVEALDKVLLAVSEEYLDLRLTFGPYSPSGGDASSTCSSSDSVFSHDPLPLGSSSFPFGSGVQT
Chain of MST4 (human) (Q9P289 whole entry, looked up): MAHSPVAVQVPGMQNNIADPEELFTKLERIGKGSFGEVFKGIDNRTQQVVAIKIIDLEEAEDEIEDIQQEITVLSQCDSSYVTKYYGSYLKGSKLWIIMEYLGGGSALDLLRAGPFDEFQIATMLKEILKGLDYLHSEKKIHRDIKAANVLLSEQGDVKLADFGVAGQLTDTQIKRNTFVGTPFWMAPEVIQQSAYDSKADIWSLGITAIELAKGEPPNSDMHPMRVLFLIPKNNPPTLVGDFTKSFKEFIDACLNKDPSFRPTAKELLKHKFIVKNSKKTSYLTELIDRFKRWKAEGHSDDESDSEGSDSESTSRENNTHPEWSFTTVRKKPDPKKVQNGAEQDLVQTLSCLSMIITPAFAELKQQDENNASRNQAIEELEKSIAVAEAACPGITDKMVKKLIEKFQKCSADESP
Chain of ACVRL1 (human) (P37023 whole entry, looked up): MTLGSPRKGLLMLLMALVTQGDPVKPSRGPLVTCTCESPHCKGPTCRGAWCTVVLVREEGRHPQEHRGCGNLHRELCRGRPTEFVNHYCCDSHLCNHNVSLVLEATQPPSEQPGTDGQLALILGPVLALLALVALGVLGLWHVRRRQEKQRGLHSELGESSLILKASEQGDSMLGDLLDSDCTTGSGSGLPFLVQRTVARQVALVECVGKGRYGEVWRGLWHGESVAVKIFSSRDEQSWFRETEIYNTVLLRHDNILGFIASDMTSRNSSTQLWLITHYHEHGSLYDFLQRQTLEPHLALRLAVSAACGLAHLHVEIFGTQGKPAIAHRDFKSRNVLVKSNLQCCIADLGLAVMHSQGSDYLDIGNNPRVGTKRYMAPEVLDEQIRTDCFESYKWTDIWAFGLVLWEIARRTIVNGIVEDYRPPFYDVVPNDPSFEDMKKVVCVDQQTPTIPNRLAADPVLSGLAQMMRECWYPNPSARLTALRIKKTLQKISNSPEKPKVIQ
Chain of RAF1 (human) (P04049 whole entry, looked up): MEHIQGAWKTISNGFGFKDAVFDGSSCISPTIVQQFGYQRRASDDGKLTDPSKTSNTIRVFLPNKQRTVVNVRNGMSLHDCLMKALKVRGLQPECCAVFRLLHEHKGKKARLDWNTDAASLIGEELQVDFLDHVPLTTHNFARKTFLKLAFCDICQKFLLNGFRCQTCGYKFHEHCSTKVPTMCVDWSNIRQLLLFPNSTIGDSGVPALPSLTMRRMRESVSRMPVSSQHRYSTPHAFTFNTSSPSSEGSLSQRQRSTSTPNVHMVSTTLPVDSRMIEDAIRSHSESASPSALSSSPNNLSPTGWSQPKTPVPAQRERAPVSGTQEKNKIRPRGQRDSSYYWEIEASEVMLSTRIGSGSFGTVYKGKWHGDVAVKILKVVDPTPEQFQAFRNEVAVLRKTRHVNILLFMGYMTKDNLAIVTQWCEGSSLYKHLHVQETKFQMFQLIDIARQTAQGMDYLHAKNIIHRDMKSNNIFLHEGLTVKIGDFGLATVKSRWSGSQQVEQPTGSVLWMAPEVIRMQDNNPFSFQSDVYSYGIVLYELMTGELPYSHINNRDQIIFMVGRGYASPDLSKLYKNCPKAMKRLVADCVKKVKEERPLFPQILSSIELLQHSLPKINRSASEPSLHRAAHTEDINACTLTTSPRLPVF

Clc1ccc(Nc2nnc(Cc3ccncc3)c3ccccc23)cc1
residual activity (NEK4 (human)): 97.7%
residual activity (CDK9 CCNK (human)): 104%
residual activity (AXL (human)): 98.3%
residual activity (CHUK (human)): 104%
residual activity (MINK1 (human)): 104%
residual activity (ERBB4 (human)): 104%
residual activity (ULK2 (human)): 99.9%
residual activity (MAPK14 (human)): 98.2%
residual activity (DSTYK (human)): 96.5%
residual activity (SRPK3 (human)): 104%
residual activity (DYRK1A (human)): 102%
residual activity (ITK (human)): 103%
residual activity (NEK9 (human)): 98.4%
residual activity (FES (human)): 94.7%
residual activity (DYRK2 (human)): 103%
residual activity (TEK (human)): 97.5%
residual activity (STK4 (human)): 105%
residual activity (DAPK2 (human)): 91.7%
residual activity (RAF1 (human)): 93.3%
residual activity (CAMK1D (human)): 108%
residual activity (INSRR (human)): 93.5%
residual activity (PAK7 (human)): 97.1%
residual activity (PIM3 (human)): 98.9%
residual activity (MAPK11 (human)): 96.9%
residual activity (BTK (human)): 95.4%
residual activity (ACVRL1 (human)): 98.5%
residual activity (TAOK3 (human)): 99.9%
residual activity (FGFR4 (human)): 95.8%
residual activity (CDK7 CCNH MNAT1 (human)): 107%
residual activity (ADRBK1 (human)): 102%
residual activity (LTK (human)): 105%
residual activity (SYK (human)): 114%
residual activity (MST4 (human)): 118%
residual activity (CDK2 CCNE1 (human)): 94.5%
residual activity (JAK2 JH1 JH2 (human)): 106%
residual activity (CAMK2G (human)): 115%
residual activity (STK10 (human)): 96.3%
residual activity (STK3 (human)): 92.1%
residual activity (MYLK (human)): 97.5%
residual activity (AKT2 (human)): 104%

O=C(NC(NC(=S)Nc1ccc(F)c([N+](=O)[O-])c1)C(Cl)(Cl)Cl)C(c1ccccc1)c1ccccc1 (stereo unspecified)
residual activity (NEK4 (human)): 87.8%
residual activity (CDK9 CCNK (human)): 110%
residual activity (AXL (human)): 112%
residual activity (CHUK (human)): 91.5%
residual activity (MINK1 (human)): 110%
residual activity (ERBB4 (human)): 103%
residual activity (MAPK14 (human)): 101%
residual activity (DSTYK (human)): 100%
residual activity (CSF1R (human)): 96.2%
residual activity (SRPK3 (human)): 98%
residual activity (DYRK1A (human)): 99.8%
residual activity (PTK6 (human)): 87.8%
residual activity (ITK (human)): 94.9%
residual activity (NEK9 (human)): 110%
residual activity (FES (human)): 104%
residual activity (DYRK2 (human)): 102%
residual activity (TEK (human)): 97.8%
residual activity (STK4 (human)): 96.2%
residual activity (DAPK2 (human)): 103%
residual activity (RAF1 (human)): 95.3%
residual activity (CAMK1D (human)): 99%
residual activity (INSRR (human)): 93.7%
residual activity (PAK7 (human)): 104%
residual activity (PIM3 (human)): 120%
residual activity (MAPK11 (human)): 104%
residual activity (BTK (human)): 104%
residual activity (ACVRL1 (human)): 107%
residual activity (TAOK3 (human)): 121%
residual activity (FGFR4 (human)): 100%
residual activity (CDK7 CCNH MNAT1 (human)): 99%
residual activity (ADRBK1 (human)): 79.5%
residual activity (LTK (human)): 91.5%
residual activity (SYK (human)): 104%
residual activity (MST4 (human)): 89.3%
residual activity (CDK2 CCNE1 (human)): 89.2%
residual activity (JAK2 JH1 JH2 (human)): 99.9%
residual activity (CAMK2G (human)): 107%
residual activity (STK10 (human)): 108%
residual activity (STK3 (human)): 107%
residual activity (MYLK (human)): 99.6%
residual activity (AKT2 (human)): 91.6%

CCN1/C(=C/C(C)=O)Sc2ccc(OC)cc21
residual activity (NEK4 (human)): 92.8%
residual activity (CDK9 CCNK (human)): 86.2%
residual activity (AXL (human)): 105%
residual activity (CHUK (human)): 89.9%
residual activity (ERBB4 (human)): 101%
residual activity (MAPK14 (human)): 95.4%
residual activity (DSTYK (human)): 90.6%
residual activity (CSF1R (human)): 93.8%
residual activity (SRPK3 (human)): 95%
residual activity (DYRK1A (human)): 28.9%
residual activity (PTK6 (human)): 85.3%
residual activity (ITK (human)): 102%
residual activity (NEK9 (human)): 102%
residual activity (FES (human)): 101%
residual activity (DYRK2 (human)): 19.5%
residual activity (TEK (human)): 102%
residual activity (STK4 (human)): 97.8%
residual activity (DAPK2 (human)): 90.3%
residual activity (RAF1 (human)): 95.9%
residual activity (CAMK1D (human)): 105%
residual activity (INSRR (human)): 91.6%
residual activity (PAK7 (human)): 84.7%
residual activity (PIM3 (human)): 47.4%
residual activity (MAPK11 (human)): 84.5%
residual activity (BTK (human)): 101%
residual activity (ACVRL1 (human)): 102%
residual activity (TAOK3 (human)): 95.6%
residual activity (FGFR4 (human)): 92.3%
residual activity (CDK7 CCNH MNAT1 (human)): 94.8%
residual activity (ADRBK1 (human)): 95.5%
residual activity (LTK (human)): 87.1%
residual activity (SYK (human)): 94.8%
residual activity (MST4 (human)): 87.9%
residual activity (CDK2 CCNE1 (human)): 87.7%
residual activity (JAK2 JH1 JH2 (human)): 97.1%
residual activity (CAMK2G (human)): 90.4%
residual activity (STK10 (human)): 96.8%
residual activity (MYLK (human)): 93.7%
residual activity (AKT2 (human)): 95.2%

C#Cc1cccc(Nc2ncnc3cc(OCCOC)c(OCCOC)cc23)c1
residual activity (CDK9 CCNK (human)): 102%
residual activity (CHUK (human)): 94.2%
residual activity (ERBB4 (human)): 61.4%
residual activity (ULK2 (human)): 98.7%
residual activity (MAPK14 (human)): 95.3%
residual activity (DSTYK (human)): 107%
residual activity (SRPK3 (human)): 101%
residual activity (PTK6 (human)): 85.9%
residual activity (ITK (human)): 106%
residual activity (NEK9 (human)): 99.5%
residual activity (FES (human)): 105%
residual activity (TEK (human)): 94%
residual activity (STK4 (human)): 97.4%
residual activity (DAPK2 (human)): 92.5%
residual activity (RAF1 (human)): 93.7%
residual activity (CAMK1D (human)): 98.8%
residual activity (INSRR (human)): 111%
residual activity (PAK7 (human)): 97.3%
residual activity (PIM3 (human)): 81.4%
residual activity (MAPK11 (human)): 97.8%
residual activity (ACVRL1 (human)): 101%
residual activity (TAOK3 (human)): 106%
residual activity (FGFR4 (human)): 93.3%
residual activity (CDK7 CCNH MNAT1 (human)): 107%
residual activity (ADRBK1 (human)): 92.9%
residual activity (LTK (human)): 66.3%
residual activity (MST4 (human)): 106%
residual activity (CDK2 CCNE1 (human)): 96.5%
residual activity (CAMK2G (human)): 115%
residual activity (STK10 (human)): 20.3%
residual activity (STK3 (human)): 94.9%
residual activity (AKT2 (human)): 108%

COc1cc2ncnc(Nc3ccc(F)c(Cl)c3)c2cc1OCCCN1CCOCC1
residual activity (NEK4 (human)): 103%
residual activity (CDK9 CCNK (human)): 99.3%
residual activity (AXL (human)): 88.8%
residual activity (CHUK (human)): 94.9%
residual activity (ERBB4 (human)): 24.2%
residual activity (ULK2 (human)): 104%
residual activity (MAPK14 (human)): 74.6%
residual activity (DSTYK (human)): 101%
residual activity (CSF1R (human)): 110%
residual activity (SRPK3 (human)): 103%
residual activity (DYRK1A (human)): 101%
residual activity (PTK6 (human)): 77.2%
residual activity (ITK (human)): 99.9%
residual activity (NEK9 (human)): 99.3%
residual activity (DYRK2 (human)): 98.2%
residual activity (TEK (human)): 96.2%
residual activity (STK4 (human)): 101%
residual activity (DAPK2 (human)): 93.2%
residual activity (RAF1 (human)): 90.9%
residual activity (CAMK1D (human)): 88.6%
residual activity (INSRR (human)): 112%
residual activity (PAK7 (human)): 97.4%
residual activity (PIM3 (human)): 74.6%
residual activity (MAPK11 (human)): 95.1%
residual activity (BTK (human)): 60.6%
residual activity (ACVRL1 (human)): 96.9%
residual activity (TAOK3 (human)): 99.5%
residual activity (FGFR4 (human)): 92.4%
residual activity (CDK7 CCNH MNAT1 (human)): 105%
residual activity (ADRBK1 (human)): 93.3%
residual activity (LTK (human)): 90.4%
residual activity (SYK (human)): 104%
residual activity (MST4 (human)): 106%
residual activity (CDK2 CCNE1 (human)): 101%
residual activity (JAK2 JH1 JH2 (human)): 99.8%
residual activity (CAMK2G (human)): 128%
residual activity (STK10 (human)): 38.6%
residual activity (STK3 (human)): 93.6%
residual activity (MYLK (human)): 89.7%
